Measurements as given in patent US20240025919A1, “AZA-TETRACYCLIC OXAZEPINE COMPOUNDS AND USES THEREOF” (Genentech, Inc., priority 2022, published 2024).

Assays:
[1] = biological target: KRAS G12D (Homo sapiens (Human), UniProt P01116, G12D); test: KRAS G12D LoEnz Biochemical Assay, BODIPY-GDP Exchange TR-FRET (SOS1-mediated nucleotide exchange); conditions: read-out: KRas (G12D) GDP HTRF IC50
[2] = biological target: KRAS WT (Homo sapiens (Human), UniProt P01116); test: KRAS WT Biochemical Assay, BODIPY-GDP Exchange TR-FRET (Example 502; 0.06 nM KRAS WT, 15 nM GDP, 300 nM SOS1, 120-minute incubation); conditions: read-out: KRas HTRF IC50
Sequence of KRAS WT (P01116-2 other isoform, or with tags, fused parts or gaps): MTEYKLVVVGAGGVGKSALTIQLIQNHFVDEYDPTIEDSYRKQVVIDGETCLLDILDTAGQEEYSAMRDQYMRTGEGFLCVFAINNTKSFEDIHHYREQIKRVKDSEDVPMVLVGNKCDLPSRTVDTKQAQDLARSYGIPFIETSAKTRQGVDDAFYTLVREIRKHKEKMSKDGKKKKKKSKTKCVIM
Procedure: Example 502: KRAS WT Biochemical Assay, BODIPY-GDP Exchange TR-FRET. Biochemical compound potencies are assessed by evaluating inhibition of SOS1-mediated nucleotide exchange in KRAS WT. In this assay, the SOS1-promoted exchange of fluorescently-labeled GDP (BOPIDY-GDP) is monitored by time-resolved fluorescence resonance energy transfer (TR-FRET). Compounds solubilized in DMSO are dispensed as concentration series into 384-well white assay plates. A preformed complex of 0.06 nM biotin-tagged recombinant human KRAS WT, 15 nM GDP and 0.06 nM terbium-labeled streptavidin (CisBIO) prepared in 10 uL/well assay buffer (20 mM HEPES, pH 7.5, 50 mM NaCl, 10 mM MgCl2, 0.01% Tween-20 and 1 mM dithiothreitol) is added and allowed to incubate for 10-minutes at room temperature. The reaction is initiated with the addition of 5 uL 300 nM recombinant human SOS1 and 300 nM BODIPY-GDP in assay buffer. After a 120-minute incubation, the fluorescence is measured with excitation at 337 nm and emission at 490 and 520 nm. The TR-FRET ratio is determined as the fluorescence at 520 nm divided by the fluorescence at 490 nm multiplied by 10,000. The results are normalized to percent inhibition based on control samples: DMSO (0% inhibition) and control compound at a concentration that inhibits completely (100% inhibition). The normalized TR-FRET results are plotted against compound concentration, and the data are fit to a 4-parameter Hill equation to determine the IC50 values.

Sequence of KRAS G12D (P01116-2 other isoform, or with tags, fused parts or gaps G12D): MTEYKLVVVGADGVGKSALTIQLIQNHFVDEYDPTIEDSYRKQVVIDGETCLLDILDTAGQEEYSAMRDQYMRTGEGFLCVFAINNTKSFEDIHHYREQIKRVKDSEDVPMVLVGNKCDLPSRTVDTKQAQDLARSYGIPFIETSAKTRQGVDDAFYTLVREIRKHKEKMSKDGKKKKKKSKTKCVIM

Cc1c(F)c(N)cc(-c2nc3c4c(nc(OC[C@@H]5CC[C@H]6C[C@@H](F)CN56)nc4c2F)N2C[C@H]4CC[C@H](N4)[C@H]2[C@H](C)O3)c1C(F)(F)F (single isomer, unassigned) [152 (isomer 1)]
IC50 [1]: 0.1 nM
IC50 [2]: 15.7 nM

Cc1c(F)c(N)cc(-c2nc3c4c(nc(OC[C@@H]5CC[C@@H]6C[C@@H](F)CN65)nc4c2F)N2C[C@H]4CC[C@H](N4)[C@H]2[C@H](C)O3)c1C(F)(F)F (single isomer, unassigned) [152 (isomer 2)]
IC50 [1]: 3.23 nM
IC50 [2]: 526 nM

C=C1CN2CCC[C@@]2(COc2nc3c4c(nc(-c5cc(N)c(F)c(C)c5C(F)(F)F)c(F)c4n2)O[C@@H](C)[C@@H]2[C@@H]4CC[C@H](CN32)N4)C1 [Compound 57, 2-Fluoro-5-((5S,5aS,6S,9R)-1-fluoro-5-methyl-12-(((S)-2-methylenetetrahydro-1H-pyrrolizin-7a(5H)-yl)methoxy)-5a,6,7,8,9,10-hexahydro-5H-4-oxa-3,10a,11,13,14-pentaaza-6,9-methanonaphtho[1,8-ab]heptalen-2-yl)-3-methyl-4-(trifluoromethyl) aniline]
IC50 [1]: 0.16 nM
IC50 [2]: 0.633 nM

Cc1c(F)c(N)cc(-c2nc3c4c(nc(OC[C@@]56CCCN5C[C@H](F)C6)nc4c2F)N2C[C@H]4CC[C@H](N4)[C@H]2[C@H](C)O3)c1C=O [Compound 59, 4-Amino-3-fluoro-6-((5S,5aS,6S,9R)-1-fluoro-12-(((2R,7aS)-2-fluorotetrahydro-1H-pyrrolizin-7a(5H)-yl)methoxy)-5-methyl-5a,6,7,8,9,10-hexahydro-5H-4-oxa-3,10a,11,13,14-pentaaza-6,9-methanonaphtho[1,8-ab]heptalen-2-yl)-2-methylbenzaldehyde]
IC50 [1]: 0.31 nM
IC50 [2]: 51.4 nM

Cc1cc(N)cc(-c2nc3c4c(nc(OC[C@]56CCN5CC(F)(F)C6)nc4c2F)N2C[C@H]4CC[C@H](N4)[C@H]2[C@H](C)O3)c1C(F)(F)F [Compound 60, 3-((5S,5aS,6S,9R)-12-(((R)-3,3-Difluoro-1-azabicyclo[3.2.0]heptan-5-yl)methoxy)-1-fluoro-5-methyl-5a,6,7,8,9,10-hexahydro-5H-4-oxa-3,10a,11,13,14-pentaaza-6,9-methanonaphtho[1,8-ab]heptalen-2-yl)-5-methyl-4-(trifluoromethyl)aniline]
IC50 [1]: 0.18 nM
IC50 [2]: 4.55 nM

Cc1c(F)c(N)cc(-c2nc3c4c(nc(OC[C@@]56CCCN5C[C@H](F)C6)nc4c2F)N2C[C@H]4CC[C@H](N4)[C@H]2CO3)c1C(F)(F)F [Compound 61, 2-Fluoro-5-((5aS,6S,9R)-1-fluoro-12-(((2R,7aS)-2-fluorotetrahydro-1H-pyrrolizin-7a(5H)-yl)methoxy)-5a,6,7,8,9,10-hexahydro-5H-4-oxa-3,10a,11,13,14-pentaaza-6,9-methanonaphtho[1,8-ab]heptalen-2-yl)-3-methyl-4-(trifluoromethyl)aniline]
IC50 [1]: 0.21 nM
IC50 [2]: 30.5 nM

Cc1c(F)c(N)cc(-c2nc3c4c(nc(OC[C@@]56CCCN5CC5(CC5(F)F)C6)nc4c2F)N2C[C@H]4CC[C@H](N4)[C@H]2[C@H](C)O3)c1C(F)(F)F (stereo partly drawn) [Compound 62, 5-((5S,5aS,6S,9R)-12-(((7a'S)-2,2-Difluorodihydro-1′H,3′H-spiro[cyclopropane-1,2′-pyrrolizin]-7a′(5′H)-yl)methoxy)-1-fluoro-5-methyl-5a,6,7,8,9,10-hexahydro-5H-4-oxa-3,10a,11,13,14-pentaaza[6,9]methanonaphtho[1,8-ab]heptalen-2-yl)-2-fluoro-3-methyl-4-(trifluoromethyl)aniline]
IC50 [1]: 0.083 nM
IC50 [2]: 0.29 nM
